Legend:
BpMip [1] = target: T1, BpMip (Burkholderia pseudomallei, UniProt Q63J95); assay: biochemical; format: binding, B. pseudomallei
BpMip [2] = target: T1, BpMip; assay: biochemical

T1 sequence (Q63J95 whole entry, added parts left off): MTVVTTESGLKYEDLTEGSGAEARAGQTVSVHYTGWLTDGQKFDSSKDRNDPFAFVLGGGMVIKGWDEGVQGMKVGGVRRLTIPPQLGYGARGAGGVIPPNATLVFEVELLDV

COc1cc(NC(=O)CCNC(=O)[C@@H]2CCCCN2S(=O)(=O)Cc2ccccc2)cc(OC)c1OC [SF339, (S)-1-(benzylsulfonyl)-N-(3-oxo-3-((3,4,5-trimethoxyphenyl)amino)propyl)piperidine-2-carboxamide]
Kd (BpMip [1]): 10900 ± 200 nM | effect on B. pseudomallei-induced cytotoxicity (B. pseudomallei K96243): no statistically significant difference | IC50 (BpMip [2]): 260 nM | Ki (BpMip [2]; Ki (μM) Mean): 0.45 µM

Reference: publication PMC9155639 (Journal of Antimicrobial Chemotherapy, 2022)
